Experimental data as given in US12187742B2 (XRAD Therapeutics, Inc., priority 2018, dated 2025).
Structures can show the parent of a compound that is named as a salt.

Target: ATM (Homo sapiens (Human), UniProt Q13315)
Assay: ATM in Cell Western Assay (pKAP1 in etoposide-treated MCF-7 cells)
Format: cell-based
Details: MCF-7 cells, etoposide 100 μM, 1 hr, pKAP1 readout
Description: Assay of Compounds ATM and DNA-PK Inhibition
ATM in Cell Western Assay:
Next day, add corresponding concentration of compounds using pin tool (Echo 550), the final top concentration is 1 μM, 3-fold series dilution, total 10 doses. Then add etoposide (Sigma, #E1383) to a final concentration of 100 μM. Incubate at 37° C. for 1 hr. Fix cells by adding 25 μL of fixing solution (8% paraformaldehyde) for 20 minutes at ambient temperature. Permeabilize cells for 5 washes with 1×PBS (phosphate buffered saline) containing 0.1% Triton X-100; each wash is for 5 minutes. […] The next day, wash the plate 5 times with 1×PBST (1×PBS containing 0.1% Tween-20). […] Wash the cells for 5 times with 1×PBST (1×PBS containing 0.1% Tween-20) at ambient temperature, using gentle shaking in the dark. After the last wash
remove wash solution, turn plate upside down onto a thin paper towel and centrifuge at 1000 rpm for 1 min to absorb all wash buffer. Clean the bottom of plate with moist lint free paper. Scan plate immediately using ODYSSEY CLx (LI-COR) for the best results.

Sequence of ATM (Q13315 whole entry): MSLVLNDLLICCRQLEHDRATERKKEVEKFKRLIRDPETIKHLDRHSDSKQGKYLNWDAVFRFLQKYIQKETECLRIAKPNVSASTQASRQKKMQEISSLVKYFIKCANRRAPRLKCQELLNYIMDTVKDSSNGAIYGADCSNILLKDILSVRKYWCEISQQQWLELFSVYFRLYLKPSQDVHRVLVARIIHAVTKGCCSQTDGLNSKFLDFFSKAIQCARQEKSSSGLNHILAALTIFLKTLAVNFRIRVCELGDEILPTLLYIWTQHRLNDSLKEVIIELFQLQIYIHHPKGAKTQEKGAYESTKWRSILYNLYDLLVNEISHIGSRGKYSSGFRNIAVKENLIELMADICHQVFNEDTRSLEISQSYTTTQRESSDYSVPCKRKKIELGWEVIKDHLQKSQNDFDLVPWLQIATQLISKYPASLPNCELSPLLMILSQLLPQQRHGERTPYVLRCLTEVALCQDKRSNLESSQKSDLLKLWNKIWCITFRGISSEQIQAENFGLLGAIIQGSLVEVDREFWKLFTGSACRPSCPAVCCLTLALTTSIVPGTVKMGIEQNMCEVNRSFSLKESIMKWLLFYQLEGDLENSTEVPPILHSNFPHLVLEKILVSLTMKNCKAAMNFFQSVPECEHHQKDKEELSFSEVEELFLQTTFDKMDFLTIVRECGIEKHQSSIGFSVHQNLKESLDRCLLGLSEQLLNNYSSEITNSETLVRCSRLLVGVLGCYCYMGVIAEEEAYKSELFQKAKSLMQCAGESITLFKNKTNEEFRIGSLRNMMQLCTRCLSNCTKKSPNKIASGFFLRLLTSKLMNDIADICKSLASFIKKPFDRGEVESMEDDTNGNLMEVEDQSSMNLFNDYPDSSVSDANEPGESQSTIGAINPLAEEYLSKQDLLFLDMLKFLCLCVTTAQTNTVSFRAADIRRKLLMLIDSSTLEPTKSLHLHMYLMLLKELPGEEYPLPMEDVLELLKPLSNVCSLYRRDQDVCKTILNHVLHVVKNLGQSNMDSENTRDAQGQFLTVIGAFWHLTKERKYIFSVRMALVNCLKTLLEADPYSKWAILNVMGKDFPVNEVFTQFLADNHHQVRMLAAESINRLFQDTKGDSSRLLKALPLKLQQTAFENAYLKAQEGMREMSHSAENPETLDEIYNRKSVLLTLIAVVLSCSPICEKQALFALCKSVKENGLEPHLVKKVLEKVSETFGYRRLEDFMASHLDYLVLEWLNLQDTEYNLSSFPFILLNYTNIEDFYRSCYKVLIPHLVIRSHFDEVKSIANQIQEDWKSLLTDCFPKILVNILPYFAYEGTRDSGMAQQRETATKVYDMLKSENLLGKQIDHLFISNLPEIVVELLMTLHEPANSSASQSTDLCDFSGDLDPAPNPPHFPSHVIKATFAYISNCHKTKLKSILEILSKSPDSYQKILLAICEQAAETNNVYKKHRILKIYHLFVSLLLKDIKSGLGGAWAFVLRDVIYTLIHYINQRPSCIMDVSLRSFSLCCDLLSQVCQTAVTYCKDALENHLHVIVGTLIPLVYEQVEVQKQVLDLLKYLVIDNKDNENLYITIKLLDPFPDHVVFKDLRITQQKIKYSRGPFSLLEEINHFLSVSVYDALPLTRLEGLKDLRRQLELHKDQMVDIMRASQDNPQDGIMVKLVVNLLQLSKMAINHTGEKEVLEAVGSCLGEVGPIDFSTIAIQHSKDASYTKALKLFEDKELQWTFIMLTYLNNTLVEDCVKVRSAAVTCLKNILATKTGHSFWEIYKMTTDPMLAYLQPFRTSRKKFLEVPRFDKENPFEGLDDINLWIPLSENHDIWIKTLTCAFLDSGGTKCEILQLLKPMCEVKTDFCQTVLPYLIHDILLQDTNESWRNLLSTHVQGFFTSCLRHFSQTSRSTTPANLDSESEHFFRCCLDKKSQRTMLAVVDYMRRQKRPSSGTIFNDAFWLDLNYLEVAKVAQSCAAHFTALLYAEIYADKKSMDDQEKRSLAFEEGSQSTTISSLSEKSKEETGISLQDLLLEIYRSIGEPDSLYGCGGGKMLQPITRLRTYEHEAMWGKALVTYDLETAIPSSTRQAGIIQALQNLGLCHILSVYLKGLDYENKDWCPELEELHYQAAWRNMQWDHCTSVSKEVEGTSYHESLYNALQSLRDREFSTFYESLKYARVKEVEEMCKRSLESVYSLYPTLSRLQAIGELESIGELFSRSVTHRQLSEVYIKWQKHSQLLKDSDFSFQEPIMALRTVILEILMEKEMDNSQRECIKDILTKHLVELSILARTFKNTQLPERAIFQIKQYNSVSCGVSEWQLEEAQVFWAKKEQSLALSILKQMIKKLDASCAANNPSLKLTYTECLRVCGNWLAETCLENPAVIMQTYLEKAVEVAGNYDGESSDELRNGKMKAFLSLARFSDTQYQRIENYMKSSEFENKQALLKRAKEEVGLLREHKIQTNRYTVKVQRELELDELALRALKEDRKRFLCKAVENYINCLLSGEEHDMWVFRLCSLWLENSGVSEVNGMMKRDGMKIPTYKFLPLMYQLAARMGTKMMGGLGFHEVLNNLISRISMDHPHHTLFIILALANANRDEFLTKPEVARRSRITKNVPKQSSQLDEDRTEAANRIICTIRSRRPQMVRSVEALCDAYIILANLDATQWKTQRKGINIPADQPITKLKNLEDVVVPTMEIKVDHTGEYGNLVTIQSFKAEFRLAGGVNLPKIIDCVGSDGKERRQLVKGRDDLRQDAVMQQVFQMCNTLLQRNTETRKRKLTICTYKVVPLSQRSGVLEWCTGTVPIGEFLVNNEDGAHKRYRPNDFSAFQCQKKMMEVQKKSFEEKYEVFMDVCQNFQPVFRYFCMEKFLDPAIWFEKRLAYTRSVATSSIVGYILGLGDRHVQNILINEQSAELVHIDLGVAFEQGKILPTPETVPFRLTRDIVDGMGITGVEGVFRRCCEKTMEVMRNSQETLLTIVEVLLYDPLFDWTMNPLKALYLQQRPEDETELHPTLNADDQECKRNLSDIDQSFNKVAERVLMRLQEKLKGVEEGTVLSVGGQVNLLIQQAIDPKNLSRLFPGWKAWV

**Q.** `CN1C(=O)C2(CC2)c2c1cnc1ccc(-c3cnc(OCCC[N+](C)(C)[O-])c(NS(=O)(=O)c4ccccc4)c3)cc21` [Example 140, N,N-Dimethyl-3-((5-(3′-methyl-2′-oxo-2′,3′-dihydrospiro[cyclopropane-1,1′-pyrrolo[2,3-c]quinolin]-8′-yl)-3-(phenylsulfonamido)pyridin-2-yl)oxy)propan-1-amine oxide] was tested. Which IC50 did it give?
**A.** 1 to 100 nM

**Q.** With `CN(C)CCCOc1ncc(-c2ccc3ncc4c(c3c2)C2(CCC2)C(=O)N4C)cc1NS(=O)(=O)c1ccc(OC(F)(F)F)cc1` [Example 143, N-(2-(3-(Dimethylamino)propoxy)-5-(3′-methyl-2′-oxo-2′,3′-dihydrospiro[cyclobulane-1,1′-pyrrolo[2,3-c]quinolin]-8′-yl)pyridin-3-yl)-4-(trifluoromethoxy)benzenesulfonamide hydrochloride] as the molecule, how does the IC50 read?
**A.** 1 to 100 nM

**Q.** Which IC50 does the source give for `Cc1ccc(S(=O)(=O)Nc2cc(-c3ccc4ncc5c(c4c3)C3(CCC3)C(=O)N5C)cnc2OCCCN2CCC(F)(F)CC2)cc1` [Example 152, hydrochloride] here?
**A.** 1 to 100 nM

**Q.** Which IC50 does the source give for `CN(C)CCCOc1ncc(-c2ccc3ncc4c(c3c2)C2(CCC2)C(=O)N4C)cc1NS(=O)(=O)c1cc[nH]c(=O)c1` [Example 161, N-(2-(3-(Dimethylamino)propoxy)-5-(3′-methyl-2′-oxo-2′,3′-dihydrospiro[cyclobulane-1,1′-pyrrolo[2,3-c]quinolin]-8′-yl)pyridin-3-yl)-2-oxo-1,2-dihydropyridine-4-sulfonamide] here?
**A.** 1 to 100 nM

**Q.** Which IC50 does the source give for `CN(C)CCCOc1ncc(-c2ccc3ncc4c(c3c2)C2(CCC2)C(=O)N4C)cc1NS(=O)(=O)c1cncc(C#N)c1` [Example 174, 5-Cyano-N-(2-(3-(dimethylamino)propoxy)-5-(3′-methyl-2′-oxo-2′,3′-dihydrospiro[cyclobulane-1,1′-pyrrolo[2,3-c]quinolin]-8′-yl)pyridin-3-yl)pyridine-3-sulfonamide hydrochloride] here?
**A.** 1 to 100 nM

**Q.** With `CCCCN(C)S(=O)(=O)Nc1cc(-c2ccc3ncc4c(c3c2)C2(CCC2)C(=O)N4C)cnc1OCCCN(C)C` [Example 176] as the molecule, how does the IC50 read?
**A.** 1 to 100 nM

**Q.** For `CN(C)CCCOc1ncc(-c2ccc3ncc4c(c3c2)C2(CCC2)C(=O)N4C)cc1NS(=O)(=O)N(C)C1CCNCC1` [Example 179, N-Methyl-N-(piperidin-4-yl)({2-[3-(dimethylamino)propoxy]-5-{3′-methyl-2′-oxo-2′,3′-dihydrospiro[cyclobutane-1,1′-pyrrolo[2,3-c]quinoline]-8-yl}pyridin-3-yl}amino)sulfonamide 2,2,2-trifluoroacetate], which IC50 is on record?
**A.** 1 to 100 nM

**Q.** `CN(C)CCCOc1ncc(-c2ccc3ncc4c(c3c2)C2(CCC2)C(=O)N4C)cc1NS(=O)(=O)N(C)Cc1ccccc1` [Example 182, N-Benzyl-N-methyl({2-[3-(dimethylamino)propoxy]-5-{3′-methyl-2′-oxo-2′,3′-dihydrospiro[cyclobulane-1,1′-pyrrolo[2,3-c]quinoline]-8′-yl}pyridin-3-yl}amino)sulfonamide] was tested. Which IC50 did it give?
**A.** 1 to 100 nM

**Q.** For `Cc1ccc(S(=O)(=O)N(C)c2cc(-c3ccc4ncc5c(c4c3)C3(CCC3)C(=O)N5C)cnc2OCCCN2CCCCC2)cn1` [Example 191, N,6-Dimethyl-N-(5-(3′-methyl-2′-oxo-2′,3′-dihydrospiro [cyclobulane-1,1′-pyrrolo[2,3-c]quinolin]-8′-yl)-2-(3-(piperidin-1-yl)propoxy)pyridin-3-yl)pyridine-3-sulfonamide 2,2,2-trifluoroacetate], which IC50 is on record?
**A.** > 100 nM

**Q.** For `COc1ncc(-c2ccc3ncc4c(c3c2)C2(CC2)C(=O)N4C)cc1CS(=O)(=O)c1ccc(C)nc1` [Example 209, 8′-(6-Methoxy-5-(((6-methylpyridin-3-yl)sulfonyl)methyl)pyridin-3-yl)-3′-methylspiro[cyclopropane-1,1′-pyrrolo[2,3-c]quinolin]-2′(3′-H)-one], which IC50 is on record?
**A.** > 100 nM

**Q.** How did the IC50 turn out when `Cc1ccc(S(=O)(=O)Nc2cc(-c3ccc4ncc5c(c4c3)C3(CCC3)C(=O)N5C)cnc2OCCCN2C(C)CCCC2C)cn1` (stereo not shown) [Example 210, N-(2-(3-(2,6-Dimethylpiperidin-1-yl)propoxy)-5-(3′-methyl-2′-oxo-2′,3′-dihydrospiro[cyclobutane-1,1′-pyrrolo[2,3-c]quinolin]-8′-yl)pyridin-3-yl)-6-methylpyridine-3-sulfonamide] was run?
**A.** 1 to 100 nM

**Q.** `Cc1ccc(S(=O)(=O)Nc2cc(-c3ccc4ncc5c(c4c3)C3(CCC3)C(=O)N5C)cnc2OCCCN2C(C)(C)CCCC2(C)C)cn1` [Example 211, 6-Methyl-N-(5-(3′-methyl-2′-oxo-2′,3′-dihydrospiro[cyclobulane-1,1′-pyrrolo[2,3-c]quinolin]-8′-yl)-2-(3-(2,2,6,6-tetramethylpiperidin-1-yl)propoxy)pyridin-3-yl)pyridine-3-sulfonamide] was tested. Which IC50 did it give?
**A.** > 100 nM

**Q.** Which IC50 does the source give for `[2H]C([2H])(COc1ncc(-c2ccc3ncc4c(c3c2)C2(CCC2)C(=O)N4C)cc1NS(=O)(=O)c1ccc(C)nc1)CN1CCCCC1` [Example 219, 6-Methyl-N-(5-(3′-methyl-2′-oxo-2′,3′-dihydrospiro[cyclobulane-1,1′-pyrrolo[2,3-c]quinolin]-8′-yl)-2-(3-(piperidin-1-yl)propoxy-2,2-d2)pyridin-3-yl)pyridine-3-sulfonamide] here?
**A.** > 100 nM

**Q.** Which IC50 does the source give for `CN(CCCOc1ncc(-c2ccc3ncc4c(c3c2)C2(CCC2)C(=O)N4C)cc1NS(C)(=O)=O)CC(F)(F)F` [Example 231] here?
**A.** 1 to 100 nM

**Q.** With `CN(C)CCCOc1ncc(-c2ccc3ncc4c(c3c2)C2(CCC2)C(=O)N4C)cc1S(=O)(=O)N(C)C` [Example 234, 2-(3-(Dimethylamino)propoxy)-N,N-dimethyl-5-(3′-methyl-2′-oxo-2′,3′-dihydrospiro[cyclobutane-1,1′-pyrrolo[2,3-c]quinolin]-8′-yl)pyridine-3-sulfonamide] as the molecule, how does the IC50 read?
**A.** 1 to 100 nM

**Q.** Which IC50 does the source give for `CN1C(=O)C2(CCC2)c2c1cnc1ccc(-c3cnc(OCCCO)c(NS(C)(=O)=O)c3)cc21` [Example 254, N-(2-(3-Hydroxypropoxy)-5-(3′-methyl-2′-oxo-2′,3′-dihydrospiro[cyclobutane-1,1′-pyrrolo[2,3-c]quinolin]-8′-yl)pyridin-3-yl)methanesulfonamide] here?
**A.** > 100 nM

**Q.** For `CN(C)CCCOc1ncc(-c2ccc3ncc4c(c3c2)C2(CCC2)C(=O)N4C)cc1S(N)(=O)=O` [Example 255, 2-(3-(Dimethylamino)propoxy)-5-(3′-methyl-2′-oxo-2′,3′-dihydrospiro[cyclobutane-1,1′-pyrrolo[2,3-c]quinolin]-8′-yl)pyridine-3-sulfonamide], which IC50 is on record?
**A.** 1 to 100 nM

**Q.** Which IC50 does the source give for `CN1C(=O)C2(CCC2)c2c1cnc1ccc(-c3cnc(OCC(F)(F)CN4CCCCC4)c(NS(C)(=O)=O)c3)cc21` [Example 256, N-(2-(2,2-Difluoro-3-(piperidin-1-yl)propoxy)-5-(3′-methyl-2′-oxo-2′,3′-dihydrospiro[cyclobutane-1,1′-pyrrolo[2,3-c]quinolin]-8′-yl)pyridin-3-yl)methanesulfonamide] here?
**A.** > 100 nM

**Q.** With `CN(C)CCCOc1ncc(-c2ccc3ncc4c(c3c2)C2(CC(=O)C2)C(=O)N4C)cc1NS(C)(=O)=O` [Example 258, N-(2-(3-(Dimethylamino)propoxy)-5-(3′-methyl-2′,3′-dioxo-2′,3′-dihydrospiro [cyclobutane-1,1′-pyrrolo[2,3-c]quinolin]-8′-yl)pyridin-3-yl)methanesulfonamide] as the molecule, how does the IC50 read?
**A.** 1 to 100 nM

**Q.** How did the IC50 turn out when `CN(C)CCCNc1ncc(-c2ccc3ncc4c(c3c2)C2(CCC2)C(=O)N4C)cc1NS(C)(=O)=O` [Example 259, N-(2-((3-(Dimethylamino)propyl)amino)-5-(3′-methyl-2′-oxo-2′,3′-dihydrospiro[cyclobutane-1,1′-pyrrolo[2,3-c]quinolin]-8′-yl)pyridin-3-yl)methanesulfonamide] was run?
**A.** 1 to 100 nM

**Q.** How did the IC50 turn out when `CC1CCN(c2ncc(-c3ccc4ncc5c(c4c3)C3(CCC3)C(=O)N5C)cc2NS(C)(=O)=O)CC1` [Example 260, N-(5-(3′-Methyl-2′-oxo-2′,3′-dihydrospiro[cyclobutane-1,1′-pyrrolo[2,3-c]quinolin]-8′-yl)-2-(4-methylpiperidin-l-yl)Pyridin-3-yl)methanesulfonamide] was run?
**A.** > 100 nM

**Q.** For `CN(C)CCCOc1ncc(-c2ccc3ncc4c(c3c2)C2(CCC2)C(=O)N4C)cc1NS(=O)(=O)CCN1C(=O)c2ccccc2C1=O` [Example 261, N-(2-(3-(dimethylamino)propoxy)-5-(3′-methyl-2′-oxo-2′,3′-dihydrospiro[cyclobutane-1,1′-pyrrolo[2,3-c]quinolin]-8′-yl)pyridin-3-yl)-2-(1,3-dioxoisoindolin-2-yl)ethane-1-sulfonamide], which IC50 is on record?
**A.** 1 to 100 nM

**Q.** How did the IC50 turn out when `CN(C)CCCOc1ncc(-c2ccc3ncc4c(c3c2)C2(CCC2)C(=O)N4C)nc1NS(C)(=O)=O` [Example 263, N-(3-(3-(Dimethylamino)propoxy)-6-(3′-methyl-2′-oxo-2′,3′-dihydrospiro [cyclobutane-1,1′-pyrrolo[2,3-c]quinolin]-8′-yl)pyrazin-2-yl) methanesulfonamide] was run?
**A.** 1 to 100 nM

**Q.** With `CN(C)CCOCc1ncc(-c2ccc3ncc4c(c3c2)C2(CCC2)C(=O)N4C)cc1NS(C)(=O)=O` [Example 265, N-(2-((2-(Dimethylamino)ethoxy)methyl)-5-(3′-methyl-2′-oxo-2′,3′-dihydrospiro [cyclobutane-1,1′-pyrrolo[2,3-c]quinolin]-8′-yl)pyridin-3-yl)methanesulfonamide] as the molecule, how does the IC50 read?
**A.** > 100 nM

**Q.** With `CNS(=O)(=O)c1cc(-c2ccc3ncc4c(c3c2)C2(CCC2)C(=O)N4C)cnc1OCCCN(C)C` [Example 267, 2-(3-(Dimethylamino)propoxy)-N-methyl-5-(3′-methyl-2′-oxo-2′,3′-dihydrospiro[cyclobutane-1,1′-pyrrolo[2,3-c]quinolin]-8′-yl) pyridine-3-sulfonamide] as the molecule, how does the IC50 read?
**A.** 1 to 100 nM
